Tests used:
c-src = c-src (Homo sapiens, UniProt P12931); test: Kinase inhibition c-src; assay type: biochemical
Flt-1 = Flt-1 (Homo sapiens, UniProt P17948); test: Kinase inhibition Flt-1; assay type: biochemical
KDR = KDR (Homo sapiens, UniProt P35968); test: Kinase inhibition KDR; assay type: biochemical
c-Abl = c-Abl (Homo sapiens, UniProt P00519); test: Kinase inhibition c-Abl; assay type: biochemical
Flt-4 = Flt-4 (Homo sapiens, UniProt P35916); test: Kinase inhibition Flt-4; assay type: biochemical
[1] = test system: GSK-3β/β-catenin signaling; test: GSK-3β/β-catenin-dependent signaling, TCF/LEF (pTOPFLASH) luciferase reporter in P19 cells; assay type: cell-based; settings: 10 μM, 36 hours
Procedure: P19 cells are co-transfected with pTOPFLASH (containing four consensus LEF-1/TCF-1 binding sites, a minimal promoter and a firefly luciferase reporter) and renilla luciferase control reporter (Promega). […] Thirty-six hours later, cells are lysed and protein extracts are assayed for luciferase activity. The fold induction offirefly luciferase activity is normalized to renilla luciferase activity. The normalized activities are averaged over three experiments.

c-Kit = c-Kit (Homo sapiens, UniProt P10721); test: Kinase inhibition c-Kit; assay type: biochemical
HER-1 = HER-1 (Homo sapiens, UniProt P00533); test: Kinase inhibition HER-1; assay type: biochemical
P19 cells = test: Neuronal differentiation in P19 cell monolayers (morphology, immunostaining with neuronal markers); assay type: cell-based; settings: 1 μM
Tek = Tek (Homo sapiens, UniProt Q02763); test: Kinase inhibition Tek; assay type: biochemical
HER-2 = HER-2 (Homo sapiens, UniProt P04626); test: Kinase inhibition HER-2; assay type: biochemical
PDGFR-β = PDGFR-β (Homo sapiens, UniProt P09619); test: Kinase inhibition PDGFR-β; assay type: biochemical

Sequence of HER-2 (P04626 23-1255, species assumed): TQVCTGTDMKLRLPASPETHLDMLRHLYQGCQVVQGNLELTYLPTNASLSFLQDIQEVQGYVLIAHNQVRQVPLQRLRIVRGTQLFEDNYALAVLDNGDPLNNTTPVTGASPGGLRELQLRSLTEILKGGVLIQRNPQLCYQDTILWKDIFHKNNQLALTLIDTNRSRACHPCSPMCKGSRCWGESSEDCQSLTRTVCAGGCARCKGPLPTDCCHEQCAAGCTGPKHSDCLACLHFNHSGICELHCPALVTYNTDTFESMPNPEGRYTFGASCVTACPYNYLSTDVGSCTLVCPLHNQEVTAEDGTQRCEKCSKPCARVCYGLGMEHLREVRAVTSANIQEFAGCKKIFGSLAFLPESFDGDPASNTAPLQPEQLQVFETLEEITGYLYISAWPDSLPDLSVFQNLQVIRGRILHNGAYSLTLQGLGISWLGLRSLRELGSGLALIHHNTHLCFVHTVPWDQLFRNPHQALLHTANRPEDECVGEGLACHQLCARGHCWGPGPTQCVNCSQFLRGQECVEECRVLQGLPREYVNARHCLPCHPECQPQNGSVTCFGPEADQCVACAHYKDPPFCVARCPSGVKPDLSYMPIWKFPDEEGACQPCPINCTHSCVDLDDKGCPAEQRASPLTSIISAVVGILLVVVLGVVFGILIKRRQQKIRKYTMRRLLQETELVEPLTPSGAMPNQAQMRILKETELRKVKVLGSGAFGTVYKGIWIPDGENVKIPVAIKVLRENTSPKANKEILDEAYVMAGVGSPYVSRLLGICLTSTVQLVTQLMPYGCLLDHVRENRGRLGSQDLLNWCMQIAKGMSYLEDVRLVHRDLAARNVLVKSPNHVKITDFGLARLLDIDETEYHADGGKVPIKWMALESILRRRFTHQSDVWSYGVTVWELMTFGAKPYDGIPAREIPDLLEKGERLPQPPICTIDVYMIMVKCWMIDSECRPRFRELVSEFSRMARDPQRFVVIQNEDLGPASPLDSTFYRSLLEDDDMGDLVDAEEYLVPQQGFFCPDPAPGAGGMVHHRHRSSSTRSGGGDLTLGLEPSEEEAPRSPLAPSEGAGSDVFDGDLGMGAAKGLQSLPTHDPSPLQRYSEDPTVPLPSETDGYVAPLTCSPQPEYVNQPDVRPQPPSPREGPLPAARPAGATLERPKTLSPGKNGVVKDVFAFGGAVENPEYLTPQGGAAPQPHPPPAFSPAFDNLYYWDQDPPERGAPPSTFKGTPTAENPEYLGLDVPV
Sequence of c-Abl (P00519 whole entry): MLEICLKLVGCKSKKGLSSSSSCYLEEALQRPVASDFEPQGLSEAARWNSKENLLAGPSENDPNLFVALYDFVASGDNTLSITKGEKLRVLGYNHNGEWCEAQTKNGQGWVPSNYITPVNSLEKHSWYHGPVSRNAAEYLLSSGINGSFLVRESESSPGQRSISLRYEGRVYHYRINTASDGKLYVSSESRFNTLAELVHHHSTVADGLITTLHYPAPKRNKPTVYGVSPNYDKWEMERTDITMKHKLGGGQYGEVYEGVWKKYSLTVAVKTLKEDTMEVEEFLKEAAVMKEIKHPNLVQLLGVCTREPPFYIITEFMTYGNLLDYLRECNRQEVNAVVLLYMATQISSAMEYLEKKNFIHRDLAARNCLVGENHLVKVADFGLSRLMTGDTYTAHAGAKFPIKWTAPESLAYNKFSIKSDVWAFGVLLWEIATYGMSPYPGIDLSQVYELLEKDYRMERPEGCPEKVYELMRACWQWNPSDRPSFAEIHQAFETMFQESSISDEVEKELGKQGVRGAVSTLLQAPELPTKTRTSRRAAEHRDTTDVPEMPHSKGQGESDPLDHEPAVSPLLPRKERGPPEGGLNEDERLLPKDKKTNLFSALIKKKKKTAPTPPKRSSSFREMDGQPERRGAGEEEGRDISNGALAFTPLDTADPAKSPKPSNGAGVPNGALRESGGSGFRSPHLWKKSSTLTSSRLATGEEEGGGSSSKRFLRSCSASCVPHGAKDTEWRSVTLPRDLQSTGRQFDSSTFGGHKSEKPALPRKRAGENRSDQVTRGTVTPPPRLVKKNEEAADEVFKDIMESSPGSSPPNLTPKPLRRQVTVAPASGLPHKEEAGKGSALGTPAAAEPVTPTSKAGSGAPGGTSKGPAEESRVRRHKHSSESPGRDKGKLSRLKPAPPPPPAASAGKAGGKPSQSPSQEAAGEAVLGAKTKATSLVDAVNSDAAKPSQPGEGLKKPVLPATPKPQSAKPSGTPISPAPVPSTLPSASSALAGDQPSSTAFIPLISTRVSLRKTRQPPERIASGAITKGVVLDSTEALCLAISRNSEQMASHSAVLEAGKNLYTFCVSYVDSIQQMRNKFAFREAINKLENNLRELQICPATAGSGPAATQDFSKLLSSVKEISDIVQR
Sequence of c-Kit (P10721 26-976): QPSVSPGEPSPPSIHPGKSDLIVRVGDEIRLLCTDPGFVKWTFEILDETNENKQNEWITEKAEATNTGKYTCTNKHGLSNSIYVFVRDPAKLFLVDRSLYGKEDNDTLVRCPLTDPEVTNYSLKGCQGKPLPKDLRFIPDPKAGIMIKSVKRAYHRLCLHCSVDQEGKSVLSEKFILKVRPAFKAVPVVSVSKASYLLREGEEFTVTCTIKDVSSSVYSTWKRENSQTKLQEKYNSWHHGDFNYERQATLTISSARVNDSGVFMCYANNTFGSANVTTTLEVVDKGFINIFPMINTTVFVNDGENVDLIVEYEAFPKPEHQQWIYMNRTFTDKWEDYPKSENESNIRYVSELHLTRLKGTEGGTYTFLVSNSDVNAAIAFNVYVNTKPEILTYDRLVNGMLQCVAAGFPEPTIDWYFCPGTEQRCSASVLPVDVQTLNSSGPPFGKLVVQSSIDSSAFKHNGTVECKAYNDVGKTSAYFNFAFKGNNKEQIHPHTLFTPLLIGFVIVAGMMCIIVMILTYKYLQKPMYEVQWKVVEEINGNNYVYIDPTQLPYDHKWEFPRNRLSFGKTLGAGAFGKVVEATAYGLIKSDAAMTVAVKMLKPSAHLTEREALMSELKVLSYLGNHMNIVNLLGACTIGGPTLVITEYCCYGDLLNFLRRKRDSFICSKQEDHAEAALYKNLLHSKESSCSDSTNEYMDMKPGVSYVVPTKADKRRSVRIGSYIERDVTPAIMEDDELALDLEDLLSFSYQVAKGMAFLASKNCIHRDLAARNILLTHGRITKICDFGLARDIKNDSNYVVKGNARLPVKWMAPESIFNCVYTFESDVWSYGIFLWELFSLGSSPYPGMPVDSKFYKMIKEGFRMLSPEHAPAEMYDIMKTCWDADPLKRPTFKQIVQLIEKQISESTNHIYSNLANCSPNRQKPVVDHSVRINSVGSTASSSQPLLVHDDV
Sequence of KDR (P35968 20-1356, species assumed): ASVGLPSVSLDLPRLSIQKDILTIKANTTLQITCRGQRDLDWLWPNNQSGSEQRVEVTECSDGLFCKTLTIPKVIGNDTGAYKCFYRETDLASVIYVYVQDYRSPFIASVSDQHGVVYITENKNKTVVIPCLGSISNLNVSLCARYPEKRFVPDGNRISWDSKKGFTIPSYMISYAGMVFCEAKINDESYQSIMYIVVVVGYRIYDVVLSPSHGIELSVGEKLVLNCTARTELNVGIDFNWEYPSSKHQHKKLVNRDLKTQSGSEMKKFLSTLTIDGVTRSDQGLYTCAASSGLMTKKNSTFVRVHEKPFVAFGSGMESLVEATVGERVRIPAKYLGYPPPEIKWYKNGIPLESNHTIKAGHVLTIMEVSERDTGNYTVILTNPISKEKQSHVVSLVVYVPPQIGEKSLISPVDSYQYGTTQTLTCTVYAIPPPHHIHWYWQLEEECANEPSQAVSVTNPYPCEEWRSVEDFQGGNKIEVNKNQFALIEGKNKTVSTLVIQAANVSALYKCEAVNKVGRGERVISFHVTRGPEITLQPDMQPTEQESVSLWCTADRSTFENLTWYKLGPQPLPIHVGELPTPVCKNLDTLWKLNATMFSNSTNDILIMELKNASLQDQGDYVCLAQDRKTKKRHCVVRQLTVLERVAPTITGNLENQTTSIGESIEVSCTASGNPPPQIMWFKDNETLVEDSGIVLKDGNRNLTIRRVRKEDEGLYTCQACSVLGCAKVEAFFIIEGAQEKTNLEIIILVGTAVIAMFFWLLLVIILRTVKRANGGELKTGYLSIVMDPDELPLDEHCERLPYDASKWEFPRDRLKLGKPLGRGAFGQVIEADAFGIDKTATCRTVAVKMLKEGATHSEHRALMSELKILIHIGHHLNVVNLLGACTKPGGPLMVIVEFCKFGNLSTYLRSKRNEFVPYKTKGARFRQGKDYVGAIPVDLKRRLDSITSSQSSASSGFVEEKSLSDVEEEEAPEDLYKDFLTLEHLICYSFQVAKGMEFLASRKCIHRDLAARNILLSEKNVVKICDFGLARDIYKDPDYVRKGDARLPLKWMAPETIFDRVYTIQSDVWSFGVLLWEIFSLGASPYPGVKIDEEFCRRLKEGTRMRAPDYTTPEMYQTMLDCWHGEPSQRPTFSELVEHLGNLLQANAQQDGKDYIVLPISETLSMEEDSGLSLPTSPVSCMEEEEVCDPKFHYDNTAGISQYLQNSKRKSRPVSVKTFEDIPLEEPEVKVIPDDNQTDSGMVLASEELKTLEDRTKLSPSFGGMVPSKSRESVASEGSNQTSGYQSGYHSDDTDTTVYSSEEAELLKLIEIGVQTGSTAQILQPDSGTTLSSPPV

- inhibition at 10 µM (c-src): 100%
- inhibition at 10 µM (Flt-1): 100%
- inhibition at 10 µM (KDR): 100%
- inhibition at 10 µM (c-Abl; 10 μM): 100%
- IC50 (c-Abl; read-out: IC50 against c-Abl): 0.0045 µM
- inhibition at 10 µM (Flt-4): 100%
- inhibition at 10 µM (c-Kit; 10 μM): 100%
- IC50 (c-Kit; read-out: IC50 against c-Kit): 0.02 µM
- inhibition at 10 µM (HER-1): 100%
- inhibition at 10 µM (Tek): 100%
- inhibition at 10 µM (HER-2; 10 μM): 100%
- IC50 (HER-2; read-out: IC50 against HER-2): 0.03 µM
- inhibition at 10 µM (PDGFR-β): 100%
Compound: Nc1cccc(-c2cc3c(Oc4cccc(O)c4)ncnc3[nH]2)c1 [Example 1, 3-[6-(3-Amino-phenyl)-7H-pyrrolo[2,3-d]pyrimidin-4-yloxy]-phenol]
- increase in β-catenin induced TCF/LEF reporter activity [1]: eleven
- differentiation of P19 cells into glial and muscle cells (P19 cells): not detected
- nestin immunostaining of the remaining cells (neuronal progenitor cells) (P19 cells): immunostained positively for nestin
- cells differentiating specifically into neuronal lineages (P19 cells; monolayers of P19 cells, neuronal morphology and immunostaining with neuronal specific markers): 30-40%
